From patent US6620828B2, “Thiazole compounds and pharmaceutical compositions for inhibiting protein kinases and methods for their use” (Agouron Pharmaceuticals, Inc., priority 1999, dated 2003)
Where two headings read alike, the source gives them in different places.

Test system: human umbilical vein endothelial cells (HUVEC)
Test: HUVEC proliferation assay
Assay type: cell-based
Settings: Homo sapiens, HUVEC; for inhibition at 0.001 µM: 1 nM; for inhibition at 0.01 µM: 10 nM, read-out: % inhibition @ 10 nM
In short: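 Exponentially growing HUVEC were serum-starved 24 h (F12K + 1% FBS), pre-treated 1 h with compound (0.1% DMSO final), then stimulated with 6 ng/ml VEGF. Proliferation was read 72 h later by MTT reduction (A595). IC50 came from seven 0.5-log concentrations in triplicate; screens gave % inhibition relative to VEGF-only and starved wells.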

[1] = Table II screening results, crude combinatorial amide library
[2] = table following Table II (untitled), crude combinatorial library

SMILES	inhibition at 0.001 µM [1]	inhibition at 0.01 µM [1]	inhibition at 0.001 µM [2]	inhibition at 0.01 µM [2]
CNC(=O)Nc1nc(N)c(-c2nc(-c3cccc(NC(=O)c4ccccc4)c3)cs2)s1	-8%	-40%		
CNC(=O)Nc1nc(N)c(-c2nc(-c3cccc(NC(=O)c4cc(=O)[nH]c(=O)[nH]4)c3)cs2)s1	-5%	-14%		
CNC(=O)Nc1nc(N)c(-c2nc(-c3cccc(NC(=O)C4CCCO4)c3)cs2)s1 (centres unmarked)	183%	-33%		
CNC(=O)Nc1nc(N)c(-c2nc(-c3cccc(NC(=O)C(O)CC(C)C)c3)cs2)s1 (centres unmarked)	-18%	2%		
CNC(=O)Nc1nc(N)c(-c2nc(-c3cccc(NC(=O)c4ccc(=O)oc4)c3)cs2)s1	-4%	30%		
CNC(=O)Nc1nc(N)c(-c2nc(-c3cccc(NC(=O)c4cccc5[nH]ccc45)c3)cs2)s1	-3%	2%		
CNC(=O)Nc1nc(N)c(-c2nc(-c3cccc(NC(=O)CCCN(C)C)c3)cs2)s1	-12%	-40%		
C=CCC(=O)Nc1cccc(-c2csc(-c3sc(NC(=O)NC)nc3N)n2)c1	8%	-13%		
CNC(=O)Nc1nc(N)c(-c2nc(-c3cccc(NC(=O)C4CCN(C(C)=O)CC4)c3)cs2)s1	23%	-15%		
CNC(=O)Nc1nc(N)c(-c2nc(-c3cccc(NC(=O)C4CCOC4)c3)cs2)s1 (centres unmarked)	-5%	-8%		
CNC(=O)Nc1nc(N)c(-c2nc(-c3cccc(NC(=O)/C=C/c4cccc(OC)c4)c3)cs2)s1	-1%	-12%		
CNC(=O)Nc1nc(N)c(-c2nc(-c3cccc(NC(=O)C(O)c4ccccc4)c3)cs2)s1 (centres unmarked)	-14%	-11%		
CNC(=O)Nc1nc(N)c(-c2nc(-c3cccc(NC(=O)C(=O)Cc4ccccc4)c3)cs2)s1	8%	25%		
CNC(=O)Nc1nc(N)c(-c2nc(-c3cccc(NC(=O)C4C(C=C(C)C)C4(C)C)c3)cs2)s1 (centres unmarked)	-17%	12%		
CNC(=O)Nc1nc(N)c(-c2nc(-c3cccc(NC(=O)[C@@]45C[C@@H]6C[C@@H]4CC6(C)C5)c3)cs2)s1	-20%	2%		
CNC(=O)Nc1nc(N)c(-c2nc(-c3cccc(NC(=O)Cc4cccnc4)c3)cs2)s1	-7%	-27%		
CNC(=O)Nc1nc(N)c(-c2nc(-c3cccc(NC(=O)Cc4cc(F)ccc4F)c3)cs2)s1	-1%	4%		
CNC(=O)Nc1nc(N)c(-c2nc(-c3cccc(NC(=O)Cc4cc(F)cc(F)c4)c3)cs2)s1	-5%	-10%		
CNC(=O)Nc1nc(N)c(-c2nc(-c3cccc(NC(=O)Cc4cccc(OC)c4)c3)cs2)s1	25%	-31%		
CNC(=O)Nc1nc(N)c(-c2nc(-c3cccc(NC(=O)C4C[C@H]5C=C[C@@H]4C5)c3)cs2)s1 (some centres unmarked)	4%	-18%		

SMILES	inhibition at 0.001 µM [1]	inhibition at 0.01 µM [1]	inhibition at 0.001 µM [2]	inhibition at 0.01 µM [2]
CNC(=O)Nc1nc(N)c(-c2nc(-c3cccc(NC(=O)CCc4ccc(C)cc4)c3)cs2)s1	2%			
CNC(=O)Nc1nc(N)c(-c2nc(-c3cccc(NC(=O)c4cc(C)on4)c3)cs2)s1	14%	10%		
CNC(=O)Nc1nc(N)c(-c2nc(-c3cccc(NC(=O)C(=O)CC(C)C)c3)cs2)s1	3%	11%		
CNC(=O)Nc1nc(N)c(-c2nc(-c3cccc(NC(=O)C4CCCC(OC)C4)c3)cs2)s1 (centres unmarked)	6%	5%		
CNC(=O)Nc1nc(N)c(-c2nc(-c3cccc(NC(=O)C4(c5ccc(C)cc5)CC4)c3)cs2)s1	-8%	-6%		
CNC(=O)Nc1nc(N)c(-c2nc(-c3cccc(NC(=O)Cc4sc(S)nc4C)c3)cs2)s1	18%	-25%		
CNC(=O)Nc1nc(N)c(-c2nc(-c3cccc(NC(=O)c4cc(C)n(O)n4)c3)cs2)s1	-2%	13%		
CNC(=O)Nc1nc(N)c(-c2nc(-c3cccc(NC(=O)C4CC(=O)OC4(C)C)c3)cs2)s1 (centres unmarked)	2%	-10%		
CNC(=O)Nc1nc(N)c(-c2nc(-c3cccc(NC(=O)c4cc(C)n[nH]4)c3)cs2)s1	32%	-22%		
CNC(=O)Nc1nc(N)c(-c2nc(-c3cccc(NC(=O)c4cc(C)nn4C)c3)cs2)s1	10%	39%		
CNC(=O)Nc1nc(N)c(-c2nc(-c3cccc(NC(=O)c4cc(C)[nH]c4C)c3)cs2)s1	25%	-13%		
CNC(=O)Nc1nc(N)c(-c2nc(-c3cccc(NC(=O)c4cccc5cc[nH]c45)c3)cs2)s1	-11%	60%		
C/C=C(\C)C(=O)Nc1cccc(-c2csc(-c3sc(NC(=O)NC)nc3N)n2)c1	5%	17%		
CNC(=O)Nc1nc(N)c(-c2nc(-c3cccc(NC(=O)c4cc(=O)cco4)c3)cs2)s1	47%	27%		
CCCN(CCC)CC(=O)Nc1cccc(-c2csc(-c3sc(NC(=O)NC)nc3N)n2)c1	10%	0%		
CC/C=C(\C)C(=O)Nc1cccc(-c2csc(-c3sc(NC(=O)NC)nc3N)n2)c1	-12%	67%		
CNC(=O)Nc1nc(N)c(-c2nc(-c3cccc(NC(=O)Cc4c(F)cccc4F)c3)cs2)s1	-3%	-2%		
CNC(=O)Nc1nc(N)c(-c2nc(-c3cccc(NC(=O)C4C(C)(C)C4(C)C)c3)cs2)s1	11%	21%		
CCNc1ccccc1C(=O)Nc1cccc(-c2csc(-c3sc(NC(=O)NC)nc3N)n2)c1	-1%	29%		
CNC(=O)Nc1nc(N)c(-c2nc(-c3cccc(NC(=O)C4CC5C=CCC(C5)C4)c3)cs2)s1 (centres unmarked)	1%	55%		

SMILES	inhibition at 0.001 µM [1]	inhibition at 0.01 µM [1]	inhibition at 0.001 µM [2]	inhibition at 0.01 µM [2]
CNC(=O)Nc1nc(N)c(-c2nc(-c3cccc(NC(=O)C4CC5C=CC4CC5)c3)cs2)s1 (centres unmarked)	54%	45%		
CNC(=O)Nc1nc(N)c(-c2nc(-c3cccc(NC(=O)C4CC5CC(O)C4C5)c3)cs2)s1 (centres unmarked)	20%	19%		
CNC(=O)Nc1nc(N)c(-c2nc(-c3cccc(NC(=O)C4C[C@@H]5C[C@H]4CCC5O)c3)cs2)s1 (some centres unmarked)	14%	21%		
COc1cc(Nc2nc(N)c(-c3nc(-c4cc(NC(=O)CC5CCC6CCC5C6)ccc4C)no3)s2)cc(OC)c1OC (centres unmarked)			-7%	47%
COc1cc(Nc2nc(N)c(-c3nc(-c4cc(NC(=O)CCN5CCCCC5)ccc4C)no3)s2)cc(OC)c1OC			3%	28%
COc1cc(Nc2nc(N)c(-c3nc(-c4cc(NC(=O)CCC(=O)N5CCCC5)ccc4C)no3)s2)cc(OC)c1OC			-18%	-20%
CCc1ccccc1C(=O)Nc1ccc(C)c(-c2noc(-c3sc(Nc4cc(OC)c(OC)c(OC)c4)nc3N)n2)c1			-26%	59%
COc1cc(Nc2nc(N)c(-c3nc(-c4cc(NC(=O)C5=CCCN(C)C5)ccc4C)no3)s2)cc(OC)c1OC			5%	1%
COc1cc(Nc2nc(N)c(-c3nc(-c4cc(NC(=O)C5CCCN5C(C)=O)ccc4C)no3)s2)cc(OC)c1OC (centres unmarked)			-13%	-24%
COc1cc(Nc2nc(N)c(-c3nc(-c4cc(NC(=O)/C=C/C5CC[C@H]6C=C[C@@H]5C6)ccc4C)no3)s2)cc(OC)c1OC (some centres unmarked)			-12%	25%
CCC(C(=O)Nc1ccc(C)c(-c2noc(-c3sc(Nc4cc(OC)c(OC)c(OC)c4)nc3N)n2)c1)c1ccccc1C (centres unmarked)			-14%	13%
COc1cc(Nc2nc(N)c(-c3nc(-c4cc(NC(=O)C[C@@H]5OC(C)(C)OC5=O)ccc4C)no3)s2)cc(OC)c1OC			-2%	3%
COc1cc(Nc2nc(N)c(-c3nc(-c4cc(NC(=O)c5ccc(C(C)(C)C)o5)ccc4C)no3)s2)cc(OC)c1OC			-9%	48%
COc1cc(Nc2nc(N)c(-c3nc(-c4cc(NC(=O)/C=C(\C)c5ccccc5C)ccc4C)no3)s2)cc(OC)c1OC			-27%	8%
COc1cc(Nc2nc(N)c(-c3nc(-c4cc(NC(=O)c5ccc(C(C)=O)s5)ccc4C)no3)s2)cc(OC)c1OC			35%	93%
COc1cc(Nc2nc(N)c(-c3nc(-c4cc(NC(=O)C(C)OC=C(C)C)ccc4C)no3)s2)cc(OC)c1OC (centres unmarked)			-21%	11%
COc1cc(Nc2nc(N)c(-c3nc(-c4cc(NC(=O)/C=C/C(=O)NCC5CC5)ccc4C)no3)s2)cc(OC)c1OC			39%	5%
COc1ccc(C#N)c(C(=O)Nc2ccc(C)c(-c3noc(-c4sc(Nc5cc(OC)c(OC)c(OC)c5)nc4N)n3)c2)c1			9%	1%
COc1cc(Nc2nc(N)c(-c3nc(-c4cc(NC(=O)c5cc(C)cc(=O)o5)ccc4C)no3)s2)cc(OC)c1OC			-2%	66%
COc1cc(Nc2nc(N)c(-c3nc(-c4cc(NC(=O)Cc5cn(C)cn5)ccc4C)no3)s2)cc(OC)c1OC			-7%	-14%
